Legend:
[1] = molecular target: T1, human recombinant HMGB1 protein (Homo sapiens, UniProt P09429); assay: SPR binding affinity against HMGB1; details: SPR, HMGB1 immobilized
T1 construct: purchased Abcam
T1 sequence (P09429 1-215): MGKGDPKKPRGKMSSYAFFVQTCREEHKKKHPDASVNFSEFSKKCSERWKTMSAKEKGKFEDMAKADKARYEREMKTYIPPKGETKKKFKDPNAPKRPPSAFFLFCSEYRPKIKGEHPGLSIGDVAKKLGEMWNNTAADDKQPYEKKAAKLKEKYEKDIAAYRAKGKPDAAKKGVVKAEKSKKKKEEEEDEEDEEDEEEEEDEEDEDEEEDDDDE
Description: To confirm the binding affinity of Lf-GL to HMGB1, Surface Plasmon Resonance (SPR) was conducted at WoojungBSC (Korea). The Reichert SR7500DC system (Reichert technologies, NA, USA) and Scrubber2 software (Biologic software, FRA) were used, and a CMDH chip (Cat #: 13,206,066, Reichert technologies) was used for immobilization of the human recombinant HMGB1 protein (Abcam). HMGB1 protein was used as a ligand, and the analytes were HMGB1 antibody (Abcam), GL, Lf and Lf-GL conjugate. The immobilization buffer was S.A. (10 × 10^–3 M, pH 4.5), and the running buffer was PBS (pH 7.4). The flow rate of the analyte was 30 μL min^−1. The association and dissociation time were 3 min each, and measurements were conducted at room temperature. Results are expressed in response units (RU) over time.
Fig. S5. Binding affinity against HMGB1. Surface Plasmon Resonance (SPR) was conducted at WoojungBSC (Korea). The Reichert SR7500DC system (Reichert technologies, NA, USA) and Scrubber2 software(Biologic software, FRA) were used and the CMDH chip (Cat #: 13206066, Reichert technologies) was used for immobilization of the human recombinant HMGB1 protein (Abcam). HMGB1 protein was used as ligand and analytes were HMGB1 antibody (Abcam), GL, Lf and Lf-GL conjugate. Immobilization buffer was 10 mM S.A. (pH 4.5) and running buffer was 1× PBS. The flow rate of the analyte was 30 μL min^-1. The association and dissociation time were 3 min each and conducted at room temperature. Results are expressed in response units (RU) over time.

[2] = tested on: U87MG human glioma cell line; assay: Cell viability test (CCK-8) in U87MG; type: cell-based; details: 50 μM GL equivalent, after 48 h treatment
Description: Cell viability was determined using a cell counting kit-8 (CCK-8). U87MG and HUVECs (seeding density: 0.75 × 10^4 cells per well) in 96-well culture plates were treated with GL, Lf, or Lf-GL (25 to 200 × 10^–6 M of GL equivalent concentration) and were incubated for different periods of time (24, 48, and 72 h). After washing with PBS, they were treated with a cell culture medium containing a CCK-8 assay kit (Abbkine) and were incubated at 37 °C and 5% CO2 for 2 h. Then, absorbance was measured at 450 nm in a micro-plate reader (VLBL00D0, Thermo Fisher Scientific). Results were quantified using Sigma Plot (Systat Software, USA). To determine the effect of extracellular HMGB1 in GBM and endothelial cell proliferation, U87MG and HUVECs were seeded in 96-well culture plates (seeding density: 0.75 × 10^4 cells per well) and GL, Lf, or Lf-GL (50 × 10^–6 M GL equivalent concentration) were added to cells with or without HMGB1 protein (U87MG: 0.1 μg mL^−1, and HUVEC: 1 μg mL^−1). Cells were incubated for different periods of time (24, 48, and 72 h).

HMGB1 [3] = assay: HMGB1 ELISA of U87MG culture medium; type: cell-based, human; details: 50 μM GL equivalent, 48 h (control 131.8 ± 11.4)
Description: U87MG cells were seeded in 100 mm-cell culture dishes (2.2 × 10^6 cells per dish) and treated with GL, Lf, or Lf-GL (50 × 10^–6 M GL equivalent concentration) for 48 h. After incubating, cells were collected using a cell scrapper and were centrifuged for 3 min at 150 × g. Supernatant was collected as cell culture medium, and pellets were washed with cold PBS twice and transferred into a microcentrifuge tube. Tubes were centrifuged, and then pellets were resuspended in 500 μL 1X hypotonic buffer and incubated on ice. Then, 25 μL of NP40 was added and the mixture was agitated using a vortex mixer at the highest setting. Homogenates were centrifuged for 10 min at 842 × g at 4℃. Supernatant was collected as the cytoplasmic fraction, and pellets were resuspended in cell extraction buffer (50 μL) and were incubated for 30 min on ice with vortexing at 10 min intervals. Then, homogenates were centrifuged for 30 min at 14,000 × g at 4℃. Supernatant was collected as the nuclear fraction. The amount of HMGB1 in the samples was measured using a HMGB1 ELISA kit (Abbkine), and absorbance was measured at 450 nm in a micro-plate reader. A DNA assay (Quant-iT™ dsDNA Assay Kit, Invitrogen) was also conducted to express HMGB1 concentrations in equivalent amounts of DNA.

[4] = tested on: orthotopic GBM (U87MG) mice model; assay: Survival in orthotopic GBM mouse model; type: in vivo, Balb/c nude mice; details: i.v. GL equivalent 50 mg kg^−1 (Lf 5 mg kg^−1), 28 days
Description: To establish the orthotopic GBM mice model, GBM cells (U87MG, inoculation density: 1.0 × 10^6 cells per 10 μL) were stereotactically injected into the right striatum of Balb/c nude mice. Then, mice were randomly divided into four groups (n = 5): control, GL, Lf, and Lf-GL treated group. […] After four weeks, mice were sacrificed, and organs were harvested and fixed with 4% paraformaldehyde for further analysis.

HMGB1 [5] = assay: Immunofluorescence staining of HMGB1 in GBM tissue; type: in vivo, Balb/c nude mice; details: GBM mice, daily i.v. GL equivalent 50 mg kg^−1, 14 days (control 15.3 ± 1.7)
Excerpt: (§1) After two weeks, mice were sacrificed, and the brains were harvested and fixed with paraformaldehyde (4%). Then, tissue processing was automatically conducted using a Leica TP1020 semi-enclosed Benchtop Tissue Processor (Leica Biosystems, Wetzlar, Hesse, Germany), followed by embedding in paraffin blocks. Paraffin blocks were sliced into 5 μm thick slices using a Leica RM2145 Microtome (Leica Biosystems). Nissl staining was used to stain brain tissue slides with pre-warmed 0.1% Cresyl Violet Stain Solution (Abcam). TUNEL assays were conducted following the manufacturer’s instructions. For immunofluorescence staining; anti-HMGB1 antibody (Abcam), anti-Ki67 antibody (Abcam), anti-CD31 antibody (Abcam), and anti-VEGF antibody (Abcam) were used as primary antibodies, and goat anti-rabbit IgG-H&L Alexa Fluor 488 and goat anti-rabbit IgG H&L Alexa Fluor 647 were used as secondary antibodies, followed by DAPI mounting.

CD31 = assay: Immunofluorescence staining of CD31 in GBM tissue; type: in vivo, Balb/c nude mice; details: GBM mice, daily i.v., 14 days (control MFI 14.7 ± 1.4)
Excerpt: as §1

HMGB1 box B = molecular target: HMGB1 box B; set-up: method as in PMID 17462578; details: previously reported; cited from earlier work

## CC1(C)[C@@H](O[C@H]2O[C@H](C(=O)O)[C@@H](O)[C@H](O)[C@H]2O[C@@H]2O[C@H](C(=O)O)[C@@H](O)[C@H](O)[C@H]2O)CC[C@]2(C)[C@H]3C(=O)C=C4[C@@H]5C[C@@](C)(C(=O)O)CC[C@]5(C)CC[C@@]4(C)[C@]3(C)CC[C@@H]12 [GL, Glycyrrhizin]
[1]; PBS pH 7.4, room temperature
  Kd, dissociation rate constant: 0.00283 ± 3e-05 s⁻¹
[1]; PBS pH 7.4, room temperature, read-out: Ka, association rate constant
  kon: 5.3 ± 0.1 M⁻¹ s⁻¹
[1]; read-out: KD, equilibrium dissociation constant (KD = Kd Ka^−1)
  Kd: 540 ± 20 µM
[2]
  Number of cells, % of the original count: 93.4 ± 4.8%
HMGB1 [3]
  HMGB1 released into the medium of U87MG cells: 80.7 ± 4.5 ng/mL
[4]
  Additional days of survival versus PBS control: 4 days
HMGB1 [5]
  Mean fluorescence intensity (MFI) of HMGB1: 6.2 ± 0.8
CD31
  Decrease of MFI of CD31: approximately 4 fold
HMGB1 box B
  Kd: 140 ± 3 µM

— publication PMC10200060, “Inhibition of DAMP actions in the tumoral microenvironment using lactoferrin-glycyrrhizin conjugate for glioblastoma therapy” (Biomaterials Research, 2023)
